Test results as given in BigSolDB 2.1.

c1ccc2c(c1)oc1ccccc12
solubility (mole fraction)
Conditions | in diisopropyl ether | in ethanol | in ethyl acetate | in n-butanol | in tetrachloromethane | in toluene
283.15 K | 0.0838 | 0.0211 | 0.145 | 0.0281 | 0.134 | 0.158
288.15 K | 0.104 | 0.0271 | 0.168 | 0.0326 | 0.161 | 0.185
293.15 K | 0.13 | 0.0322 | 0.199 | 0.0421 | 0.191 | 0.223
298.15 K | 0.155 | 0.0414 | 0.232 | 0.0531 | 0.216 | 0.266
303.15 K | 0.183 | 0.0489 | 0.269 | 0.0671 | 0.264 | 0.301
308.15 K | 0.237 | 0.0707 | 0.328 | 0.0877 | 0.307 | 0.344
313.15 K | 0.284 | 0.102 | 0.387 | 0.107 | 0.354 | 0.399
318.15 K | 0.341 | 0.134 | 0.441 | 0.166 | 0.412 | 0.455
323.15 K | 0.412 | 0.197 | 0.502 | 0.23 | 0.491 | 0.514
328.15 K | 0.508 | 0.283 | 0.565 | 0.364 | 0.548 | 0.582
333.15 K | 0.58 | 0.334 | 0.625 | 0.514 | 0.635 | 0.624

O=C1c2ccccc2-c2ccccc21
solubility (mole fraction)
Conditions | in diisopropyl ether | in ethanol | in ethyl acetate | in n-butanol | in tetrachloromethane | in toluene
283.15 K | 0.0297 | 0.0209 | 0.123 | 0.0267 | 0.114 | 0.12
288.15 K | 0.0356 | 0.0241 | 0.142 | 0.0321 | 0.142 | 0.142
293.15 K | 0.0426 | 0.0301 | 0.173 | 0.0402 | 0.158 | 0.164
298.15 K | 0.0541 | 0.043 | 0.221 | 0.0498 | 0.192 | 0.197
303.15 K | 0.0642 | 0.0562 | 0.244 | 0.0685 | 0.241 | 0.228
308.15 K | 0.0815 | 0.0976 | 0.284 | 0.0848 | 0.291 | 0.264
313.15 K | 0.108 | 0.144 | 0.335 | 0.126 | 0.347 | 0.315
318.15 K | 0.137 | 0.207 | 0.395 | 0.162 | 0.403 | 0.371
323.15 K | 0.18 | 0.292 | 0.465 | 0.236 | 0.462 | 0.41
328.15 K | 0.228 | 0.409 | 0.548 | 0.311 | 0.519 | 0.485
333.15 K | 0.309 | 0.548 | 0.63 | 0.4 | 0.582 | 0.55
